Measurements: paper PMC4511154 (Journal of molecular microbiology and biotechnology, 2015)

B1: TagK-TF^His6 (Bacillus licheniformis DSM 13 = ATCC 14580) (protein)
chain: MIYTCTMNTAVDLFVETDELLPDVVNRTKDEDYQPNGKGVNISFMLKRLGLDNTALGFTGGFTGRFIENELLNEKIVTDFVEVEGISRINIFINSTREFKIVNKGPLISEARKQELINKIRQIPPGRFLFISGSLPRGVPDDMYLSLSEIAAENKLKLILDISSPVLLDCLSYHPYLIKPNEQELAAFFSRKKALSEEEIIHCGKELLDRGAERVLISRGKDGALYLDRQRTLKATAAKGKVVNTACAGDAMLAVFVGKQELGCSVPEALRHASAAGSLTAFSKGLGDVSKLDQTASQIQITHL

Key:
TagK-TF^His6 = TagK-TF^His6 (Bacillus licheniformis, UniProt Q65EY9); experiment: coupled assay LacD/TPI/G3PDH, NADH oxidation at […] nm; assay type: biochemical; settings: read-out: % residual activity at 10 mM
purified protein = substrate: O=C(COP(=O)(O)O)[C@@H](O)[C@@H](O)[C@H](O)CO; experiment: purified protein; assay type: biochemical, Bacillus licheniformis; settings: 2 mM ATP, 10 mM MgCl2, 50 mM Tris-HCl pH 8.0, 25 °C

Row | Molecule | remaining activity at 10000 µM (TagK-TF^His6) [%] | Km (purified protein) [mM] | kcat (purified protein) [s⁻¹]
1 | O=P(O)(O)OC[C@H]1OC(O)(CO)[C@@H](O)[C@H]1O (stereo partly drawn) [Tag-6P, D-tagatose-6-phosphate] | 43 | – | –
2 | O=P(O)(O)OC[C@H]1OC(O)(CO)[C@@H](O)[C@@H]1O (stereo partly drawn) [Fru-6P, D-fructose 6-phosphate] | 69 | – | –
3 | B1 | – | 3.2 ± 0.4 | 0.44 ± 0.01
